Experimental data taken from publication PMC5078989, “Targeted inhibition of the COP9 signalosome for treatment of cancer” (Nature Communications, 2016).

Test system: panel of cancer cell lines
Assay: Cell viability (CellTiter-Glo) dose-response across cancer cell line panel;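 as to EC50: after 72 h compound incubation with CellTiter-Glo ATP readout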
Format: cell-based, human
Details: for EC50: Homo sapiens
Excerpt: Next, we explored the effect of CSN5 inhibition on the viability of cancer cells. To obtain a comprehensive picture, we generated dose–response curves with a CSN5 inhibitor across more than 500 cancer cell lines in a previously described standardized setting[47] (Supplementary Data 1).
A standardized CellTiter-Glo Assay (Promega #G7570) based on the quantification of ATP was applied according to the manufacturer's protocol to measure the amount of viable cells in culture. In brief, cells were seeded into 384-well plates at optimal density for each cell line. After 4 h, compounds were added at different concentrations in growth medium and incubated for another 72 h in a humidifying chamber at 37 °C and 5% CO2. […] EC50 values were calculated from the plot of percentage of inhibition versus inhibitor concentration using the nonlinear regression analysis software Origin 7.5SR6 (OriginLab Corp.).

With `CC(C)C[C@H](NC(=O)[C@H](Cc1ccccc1)NC(=O)c1cnccn1)B(O)O` [Bortezomib] the AMAX (22Rv1) was -94.313, the AMAX (59M) was -95.8554 and the AMAX (769-P) was -95.8011. The AMAX (786-O) was -95.6334, the AMAX (A4/Fuk) was -96.8168 and the AMAX (A101D) was -96.1689. For the same molecule, the AMAX (BV-173) was -96.2276, the AMAX (CAL-54) was -95.8702 and the AMAX (CAL-78) was -96.6244. The AMAX (CAS-1) was -94.9696, the AMAX (CMK-11-5) was -95.7224 and the AMAX (CML-T1) was -97.037. The AMAX (COLO 668) was -97.3658, the AMAX (COR-L88) was -87.7017 and the AMAX (COR-L279) was -96.4332. It also gave an AMAX (COV318) of -92.9911, an AMAX (COV504) of -89.7599 and an AMAX (DK-MG) of -95.0625. The AMAX (DMS 273) was -96.4842, the AMAX (DOHH-2) was -97.4407 and the AMAX (EM-2) was -96.8249. It also gave an AMAX (GCIY) of -97.1531, an AMAX (GR-M) of -97.3342 and an AMAX (HEC-6) of -96.6882. For the same molecule, the AMAX (HEC-50B) was -86.5583, the AMAX (HEC-151) was -96.6048 and the AMAX (HEC-265) was -95.5903. The AMAX (HGC-27) was -96.7322, the AMAX (HLC-1) was -96.4119 and the AMAX (HMC-1-8) was -96.1255. It also gave an AMAX (HTK-) of -96.3221, an EC50 (8-MG-BA, cell line 8-MG-BA) of 18.9 nM and an EC50 (22Rv1, 22Rv1) of 14.7 nM. It also gave an EC50 (59M) of 13.5 nM, an EC50 697 of 9 nM and an EC50 (769-P) of 8.84 nM. The EC50 (786-0, 786-O) was 8.79 nM, the EC50 (1321-N1, 1321N1) was 12 nM and the EC50 (8305C) was 7.18 nM. The EC50 (23132/87) was 7.39 nM, the EC50 (A4/Fuk) was 2.23 nM and the EC50 (A101D) was 3.29 nM. It also gave an EC50 (A 172, A172) of 8.05 nM, an EC50 (A204, A-204) of 5.28 nM and an EC50 (A253, A-253) of 9.94 nM. For the same molecule, the EC50 (A549, A549) was 30.8 nM, the EC50 (A673, A-673) was 5.83 nM and the EC50 (A2058, A2058) was 19.4 nM. The EC50 (A2780, A2780) was 10.7 nM, the EC50 (A-375, A-375) was 12.1 nM and the EC50 (ABC-1, ABC-1) was 3.02 nM. It also gave an EC50 (ACC-MESO-1, ACC-MESO-1) of 23.6 nM, an EC50 (ACHN) of 7.43 nM and an EC50 (AMO1, AMO-1) of 2.18 nM. For the same molecule, the EC50 (AN3-CA, cell line AN3 CA) was 15.5 nM, the EC50 (AU565, AU565) was 6.2 nM and the EC50 (BFTC-909, BFTC-909) was 20.9 nM. It also gave an EC50 (BHY) of 7.83 nM, an EC50 (BICR 6) of 18.4 nM and an EC50 (BICR 16) of 38.8 nM. The EC50 (BICR 22) was 12.3 nM, the EC50 (BL-41, BL-41) was 1.54 nM and the EC50 (BT-20, BT-20) was 26.8 nM. The EC50 (BT-549, BT-549) was 5.76 nM, the EC50 (BV-173, BV-173) was 8.13 nM and the EC50 (BXPC-3, BxPC-3) was 15.1 nM. It also gave an EC50 (C32, C32) of 13 nM, an EC50 (CAKI-1, Caki-1) of 12 nM and an EC50 (CAKI-2, cell line Caki-2) of 22.8 nM. For the same molecule, the EC50 (CAL-29) was 16.3 nM, the EC50 (CAL-51, CAL-51) was 17.9 nM and the EC50 (CAL-54, CAL-54) was 9.06 nM. The EC50 (CAL-78) was 7.82 nM, the EC50 (CAL-120, CAL-120) was 7.23 nM and the EC50 (CAMA-1, CAMA-1) was 8.61 nM. It also gave an EC50 (CAPAN-1, Capan-1) of 9.26 nM, an EC50 (CAS-1) of 16.6 nM and an EC50 (CCK-81) of 9.52 nM. It also gave an EC50 (CCRF-CEM) of 3.12 nM, an EC50 (CFPAC-1, CFPAC-1) of 6.34 nM and an EC50 (CHL-1, CHL-1) of 9.51 nM. It also gave an EC50 (CHP-212, cell line CHP-212) of 5.04 nM, an EC50 (CMK) of 3.98 nM and an EC50 (CMK-11-5, CMK-11-5) of 6.27 nM. The EC50 (CML-T1, CML-T1) was 3.65 nM, the EC50 (COLO 205, COLO 205) was 35.7 nM and the EC50 (COLO 320, COLO-320) was 19 nM. For the same molecule, the EC50 (COLO 699, COLO-699) was 9.17 nM, the EC50 (COLO 704, COLO-704) was 5.98 nM and the EC50 (COLO 775) was 5.24 nM. For the same molecule, the EC50 (COLO 792) was 5.11 nM, the EC50 (COLO-668, COLO 668) was 13.2 nM and the EC50 (COLO-680N) was 12.3 nM. It also gave an EC50 (COLO-741, COLO 741) of 11 nM, an EC50 (COLO-800, cell line COLO-800) of 10.1 nM and an EC50 (COLO-829, COLO 829) of 16.6 nM. For the same molecule, the EC50 (COR-L23, cell line COR-L23) was 17.8 nM, the EC50 (COR-L47, COR-L47) was 9.05 nM and the EC50 (COR-L88, COR-L88) was 29.3 nM. The EC50 (COR-L279, COR-L279) was 7.34 nM, the EC50 (COV318, COV318) was 6.86 nM and the EC50 (COV504, COV504) was 7.72 nM. For the same molecule, the EC50 (COV644) was 6.9 nM, the EC50 (Calu-1, Calu-1) was 17.6 nM and the EC50 (Calu-3, Calu-3) was 4.34 nM. It also gave an EC50 (Calu-6, Calu-6) of 17.8 nM, an EC50 (Caov-3, Caov-3) of 7.49 nM and an EC50 (Ci-1, CI-1) of 4.61 nM. For the same molecule, the EC50 (DAN-G) was 8.14 nM, the EC50 (DB) was 3.38 nM and the EC50 (DBTRG-05MG, cell line DBTRG-05MG) was 34.7 nM. For the same molecule, the EC50 (DK-MG) was 5.7 nM, the EC50 (DLD-1, DLD-1) was 6.51 nM and the EC50 (DMS-79, cell line DMS 79) was 13.6 nM. For the same molecule, the EC50 (DMS-114, DMS 114) was 14 nM, the EC50 (DMS-273, DMS 273) was 6.64 nM and the EC50 (DOHH-2, DOHH-2) was 4.61 nM. The EC50 (DU-145, DU 145) was 17.5 nM, the EC50 (DU-4475, DU4475) was 5.05 nM and the EC50 (DV-90, DV-90) was 22.4 nM. It also gave an EC50 (Daoy) of 6.56 nM, an EC50 (Detroit 562, cell line Detroit 562) of 11.4 nM and an EC50 (EBC-1, EBC-1) of 8.25 nM. It also gave an EC50 (EFM-19, EFM-19) of 22.5 nM, an EC50 (EFM-192A) of 25.5 nM and an EC50 (EM-2, EM-2) of 1.63 nM. It also gave an EC50 (EN) of 15 nM, an EC50 (EOL1, EOL-1) of 6.8 nM and an EC50 (ES-2, ES-2) of 10.4 nM. It also gave an EC50 (ESS-1, ESS-1) of 8.62 nM, an EC50 (FU-OV-1) of 12.5 nM and an EC50 (FaDu, cell line FaDu) of 16.5 nM. It also gave an EC50 (G-361, G-361) of 2.83 nM, an EC50 (G-401, G-401) of 8.69 nM and an EC50 (G-402, G-402) of 5.03 nM. For the same molecule, the EC50 (GA-10, cell line GA-10) was 15.5 nM, the EC50 (GAMG, cell line GAMG) was 17.7 nM and the EC50 (GCIY) was 6.77 nM. The EC50 (GMS-10, cell line GMS-10) was 11.2 nM, the EC50 (GOS-3) was 6.46 nM and the EC50 (GP2d) was 14.7 nM. For the same molecule, the EC50 (GR-M) was 7.08 nM, the EC50 (Granta-519, GRANTA-519) was 3.79 nM and the EC50 (HARA) was 11.9 nM. The EC50 (HCC15, HCC-15) was 23.1 nM, the EC50 (HCC38, HCC38) was 3.99 nM and the EC50 (HCC44, HCC-44) was 19.7 nM. The EC50 (HCC70, HCC70) was 7.14 nM, the EC50 (HCC95, HCC-95) was 14.1 nM and the EC50 (HCC366, HCC-366) was 11.1 nM. For the same molecule, the EC50 (HCC827, HCC827) was 8.42 nM, the EC50 (HCC1143, HCC1143) was 15.1 nM and the EC50 (HCC1171, HCC-1171) was 27.1 nM. For the same molecule, the EC50 (HCC1187, HCC1187) was 6.22 nM, the EC50 (HCC1395, HCC1395) was 17.5 nM and the EC50 (HCC1419, HCC1419) was 28.6 nM. It also gave an EC50 (HCC1428, HCC1428) of 396 nM.
